From publication PMC5760633, “Determining direct binders of the Androgen Receptor using a high-throughput Cellular Thermal Shift Assay” (Scientific Reports, 2018) come the findings set out here.

Substitutions are numbered along the chain they refer to. Read-outs that look alike come from different tables or passages of the source.

In experiment [1] the test system is AR-driven transcription (ARE-Luciferase). As to the kind of experiment: AR-driven transcription ARE Luciferase reporter assay in CWR22Pc-R1-AD1 cells.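 For all read-outs here: cells stably carrying an ARE-driven firefly luciferase reporter, with luminescence as read-out, tested in phenol red free RPMI containing 10% charcoal stripped FBS.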 The note with it: 24 h; for Conclusion: activity in ARE-Luciferase assay: Supplementary Table S1. In kind it is cell-based, human. (In a reporter assay the amount or activity of a reporter protein is the signal.)
Procedure: 15 µL 2x Steady-Glo® reagent (Promega) was added per well and incubated 15 min in the dark before reading luminescence using an EnVision platereader. Experiments were performed in phenol red free RPMI media supplemented with 10% charcoal stripped FBS.
In experiment [2] the target is T1, Androgen Receptor (AR) (Homo sapiens, UniProt P10275, H875Y).
T1 construct: exclusively expresses a structurally full-length AR containing a H874Y mutation; endogenous in cells; host or cells: CWR22Pc-R1-AD1
T1 sequence (P10275 1-920 H875Y): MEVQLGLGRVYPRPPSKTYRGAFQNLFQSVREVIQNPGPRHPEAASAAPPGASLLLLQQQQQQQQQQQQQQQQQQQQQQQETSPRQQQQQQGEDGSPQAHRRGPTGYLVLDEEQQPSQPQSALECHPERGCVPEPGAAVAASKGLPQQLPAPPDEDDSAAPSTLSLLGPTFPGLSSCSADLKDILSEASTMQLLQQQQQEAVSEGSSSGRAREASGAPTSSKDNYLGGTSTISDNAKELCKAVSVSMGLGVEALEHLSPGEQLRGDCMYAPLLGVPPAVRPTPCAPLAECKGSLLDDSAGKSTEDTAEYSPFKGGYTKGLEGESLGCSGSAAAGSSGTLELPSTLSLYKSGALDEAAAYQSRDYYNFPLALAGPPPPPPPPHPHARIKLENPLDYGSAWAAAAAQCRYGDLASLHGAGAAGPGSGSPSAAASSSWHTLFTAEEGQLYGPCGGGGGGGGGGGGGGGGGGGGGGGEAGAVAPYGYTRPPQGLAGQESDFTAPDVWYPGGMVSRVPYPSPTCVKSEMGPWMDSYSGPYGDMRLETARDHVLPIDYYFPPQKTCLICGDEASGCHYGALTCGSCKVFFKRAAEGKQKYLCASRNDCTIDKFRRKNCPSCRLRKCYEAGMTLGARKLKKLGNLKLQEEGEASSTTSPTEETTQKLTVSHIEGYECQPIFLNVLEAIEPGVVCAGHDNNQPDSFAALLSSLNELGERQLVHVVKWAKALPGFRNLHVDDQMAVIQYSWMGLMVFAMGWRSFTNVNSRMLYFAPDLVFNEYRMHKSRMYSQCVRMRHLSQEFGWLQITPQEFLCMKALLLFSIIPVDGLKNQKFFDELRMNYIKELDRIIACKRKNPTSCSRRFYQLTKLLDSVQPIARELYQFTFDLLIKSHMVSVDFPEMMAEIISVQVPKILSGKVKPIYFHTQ
As to the kind of experiment: CETSA HT ITDRF at 46 °C, agonist mode (no exogenous DHT), CWR22Pc-R1-AD1 cells. In kind it is binding.

Experiment [3] has as its target T1, Androgen Receptor (AR). Kind of experiment: CETSA HT ITDRF at 46 °C, antagonist mode in the presence of 1 nM DHT, CWR22Pc-R1-AD1 cells. It is filed as binding.
Procedure: [sequence] experiments were performed in a plate-based, automation-compatible assay setup, as described in Supplementary Fig. S2e. […] Internal standard controls were included on each plate (Supplementary Fig. S10). […] 10 µL of cells were seeded per well of the PCR plate using a Multidrop Combi dispensor, covered with a plate lid, briefly centrifuged, and incubated under standard tissue culture conditions for 2 h or indicated timepoint. […] Cells were lysed by addition of 10 µL/well 2x SureFire Lysis Buffer using a Multidrop Combi. […] Antibody and AlphaScreen reagent, prepared as above, were added by Multidrop Combi (6 µL/well). Plates were incubated in the dark 16 h and analysed using an EnVision platereader.
The target of experiment [4] is T2, Androgen Receptor (AR) (Homo sapiens, UniProt P10275, T878A).
T2 construct: an alternative AR-positive prostate cancer cell line, LNCaP; endogenous in cells; host or cells: LNCaP
T2 sequence (P10275 1-920 T878A): T1 sequence (P10275 1-920 H875Y) with Y875H, T878A
Kind of experiment: CETSA HT ITDRF at 46 °C, agonist mode, LNCaP cells. Particulars: LNCaP cells (AR T877A). It is filed as binding.

Another experiment has as its system total cellular AR. As to the kind of experiment: CETSA HT control without heat shock and without exogenous DHT (total AR). In kind it is cell-based, human. Particulars: 2 h compound incubation, no exogenous DHT, no 46 °C heat shock.
For experiment [5], the system named is AR-responsive transcript FKBP5. Kind of experiment: AR functional RT-qPCR assay (FKBP5 transcript) in CWR22Pc-R1-AD1 cells. It is filed as cell-based, human. Particulars: 48 h, 1 nM DHT. An excerpt:
oxygen from the donor to the acceptor, exciting a fluorophore to emit light at 520-620 nm5.
Two primary anti-AR antibodies derived from mouse and rabbit were applied to bind AR simultaneously at separate epitopes. Secondary AlphaScreen® antibodies were combined with the primary antibodies in the form of AlphaScreen® donor beads functionalised with antibodies recognising mouse antibody IgG (PerkinElmer AS104D), and AlphaScreen® acceptor beads functionalised with antibodies recognising rabbit antibody IgG (PerkinElmer AL104C). […]
red free RPMI1640 media supplemented with 10% charcoal-stripped serum was used throughout. […] Media was removed using an ELX405 CW washer (BioTek) and 12 µL RealTime ready Cell Lysis Kit supplemented with RNAse inhibitor (Roche) was added per well. […] RealTime ready RNA Virus Master Mix (Roche) was prepared following manufacturer’s instructions, supplemented with primers and probes for FKBP5 (FAM, IDT Ref Seq # NM_001145776(3)) and β-Actin (VIC, IDT Ref Seq # NM_001101(1)). […] PCR plates were sealed and analysed using a LightCycer®II 480 (Roche). […] 40 PCR cycles were performed consisting of 30 sec at 95 °C, 20 sec at 60 °C, fluorescence acquisition, and 1 sec at 72 °C. Calculated Cq values were exported for analysis. […]
For orientation: Real-time PCR tracks product formation cycle by cycle.

[6] abbreviates: CWR22Pc-R1-AD1 cells, 1 nM DHT, read-out: AR-driven transcription (ARE-Luciferase), 24 h, IC50.

With `CC(C)(O)C(=O)Nc1ccc([N+](=O)[O-])c(C(F)(F)F)c1` [Hydroxyflutamide], the IC50 in experiment [1] (Homo sapiens, read-out: AR-driven transcription (ARE-Luciferase), 24 h, IC50) was 0.135 µM; in experiment [1] (Homo sapiens, read-out: ARE-Luciferase response pIC50 (converted)), 0.135 µM. Further, the “Conclusion: activity in ARE-Luciferase assay” value in experiment [1] (1 nM DHT) was “Active”. The “AR thermal stabilisation in time-course of compound incubation” value on Androgen Receptor (AR) [2] (10 minutes up to 6 hours incubation) is recorded as “No thermal”. In addition, the “AR thermal stabilisation / target engagement by compound alone” value at Androgen Receptor (AR) [2] (no exogenous agonist) is recorded as “did not thermally stabilise AR”. Further, on Androgen Receptor (AR) [3] (1 nM DHT, incubation 10 minutes – 6 hours), the “temporal analysis of target engagement (competition of DHT)” value is listed as “increasing competition of DHT from AR over time”. In addition, the “Conclusion: activity in CETSA HT” value on Androgen Receptor (AR) [3] (Supplementary Table S1, 2 h, 46 °C) was “Active”. Besides, the “AR thermal stabilisation / agonist binding mode by compound alone” value at Androgen Receptor (AR) [4] is “did not show any evidence of binding as an agonist”. Also, the “effect on total AR (no heat shock)” value in the experiment on total cellular AR is “do not reduce total AR”.

Regarding `N#Cc1cc2cc(CN3CCC(Nc4ncnc5sc(CC(F)(F)F)cc45)CC3)ccc2[nH]1` [MI-136], the IC50 in experiment [1] (setting [6]) is 7.4 µM. Moreover, in experiment [1] (1 nM DHT), the “Conclusion: activity in ARE-Luciferase assay” value was “Active”. Moreover, in experiment [5], the “reduction of AR-responsive transcript FKBP5 (RT-qPCR)” value was “confirmed”.

With `Cc1c(CN2CCC(Nc3ncnc4sc(CC(F)(F)F)cc34)CC2)ccc2c1cc(C#N)n2Cc1cn[nH]c1` [MI-503], in experiment [1] (setting [6]), the IC50 stood at 11 µM. Also, the “Conclusion: activity in ARE-Luciferase assay” value in experiment [1] (1 nM DHT) is recorded as “Active”. In addition, the “reduction of AR-responsive transcript FKBP5 (RT-qPCR)” value in experiment [5] is listed as “confirmed”.
